Measurements published in US20240368163A1, “COMPOUNDS AND METHODS FOR MODULATING SPLICING” (REMIX THERAPEUTICS INC., priority 2021, published 2024).

Tests used:
Type in all cases: cell-based, human
HTT [1] = assay: Splicing RT-qPCR assay, HTT mRNA canonical junction (CJ) and alternative junction (AJ); conditions: Homo sapiens; for AC50: increase in AJ mRNA
Outline: (§1)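 Splicing switch read by one-step RT-qPCR of canonical and alternative exon junctions, housekeeper-normalized (GAPDH/GUSB/PPIA), 2^(−ΔΔCt) vs DMSO as percent response. Cells (A673 or K562) dosed 24 h, 11 points 3-fold from 10 uM, DMSO ≤0.25%.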

MYB [2] = assay: Splicing RT-qPCR assay, MYB mRNA canonical junction (CJ) and alternative junction (AJ); conditions: Homo sapiens; for AC50: increase in AJ mRNA
Outline: as §1

HTT [3] = assay: HiBiT protein abundance assay, HTT; conditions: Homo sapiens, K562, 24 h, Table 13A, modified K562 cells
Outline: (§2)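 Target abundance was measured as HiBiT luminescence after 24 h compound treatment of tagged K562 cells. Responses were normalized between unmodified K562 and DMSO-treated tagged cells, and IC50 taken at the 50% level of a 4PL curve.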

Target C [4] = assay: HiBiT protein abundance assay, Target C; conditions: Homo sapiens, K562, 24 h, Table 13A, modified K562 cells
Outline: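 Cells carrying the HiBiT knock-in were plated at 10000 cells/well, dosed with compound (10-point, 3-fold, 10 μM top final) and incubated 24 hours at 37 °C. Lytic reagent was then added and luminescence read. Percent response fed a 4PL fit for IC50.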

SMN2 = assay: Splicing RT-qPCR panel, SMN2 canonical junction (CJ) mRNA; conditions: Homo sapiens, RT-qPCR panel, canonical junction mRNA; compound concentration having 50% response in CJ decrease; read-out: SMN2 IC50 (decrease in CJ mRNA levels)
Outline: as §1

MYB [5] = assay: HiBiT protein abundance assay, MYB; conditions: Homo sapiens, K562, 24 h, Table 13A, modified K562 cells
Outline: as §2

Target C [6] = assay: Splicing RT-qPCR panel, Target C canonical junction (CJ) mRNA; conditions: Homo sapiens, RT-qPCR panel, canonical junction mRNA; compound concentration having 50% response in CJ decrease; read-out: Target C IC50 (decrease in CJ mRNA levels)
Outline: as §1

[7] = 24 h, decrease in CJ mRNA, A673 or K562 cells, 24 hours treatment, RT-qPCR, read-out: HTT CJ IC50
[8] = 24 h, A673 or K562 cells, 24 hours treatment, RT-qPCR
[9] = RT-qPCR panel, canonical junction mRNA, compound concentration having 50% response in CJ decrease, read-out: HTT IC50 (decrease in CJ mRNA levels)
[10] = 24 h, decrease in CJ mRNA, A673 or K562 cells, 24 hours treatment, RT-qPCR, read-out: MYB CJ IC50
[11] = RT-qPCR panel, canonical junction mRNA, compound concentration having 50% response in CJ decrease, read-out: MYB IC50 (decrease in CJ mRNA levels)

Row | Structure (SMILES) | IC50 (HTT [1]; [7]) | AC50 (HTT [1]; [8]) | IC50 (HTT [1]; [9]) | IC50 (MYB [2]; [10]) | AC50 (MYB [2]; [8]) | IC50 (MYB [2]; [11]) | IC50 (HTT [3]) | IC50 (Target C [4]) | IC50 (SMN2) | IC50 (MYB [5]) | IC50 (Target C [6])
1 | c1n[nH]cc1-c1ccc(-c2ccc(N3CCCC4(CCNC4)C3)nn2)c2[nH]ncc12 (stereo not shown) [Compound 253] | > 10 µM | > 10 µM | > 10 µM | > 10 µM | > 10 µM | > 10 µM | > 10 µM | > 10 µM | > 10 µM | > 10 µM | > 10 µM
2 | c1n[nH]cc1-c1ccc(-c2ccc(N3C[C@H]4CNC[C@H]4C3)nn2)c2[nH]ncc12 [Compound 254] | > 10 µM | > 10 µM | > 10 µM | > 10 µM | 1 to 10 µM | > 10 µM | > 10 µM | > 10 µM | 0.1 to 1 µM | > 10 µM | > 10 µM
3 | CN1C[C@@H]2CN(c3ccc(-c4ccc(-c5cn[nH]c5)c5cn[nH]c45)nn3)C[C@@H]2C1 [Compound 255] | > 10 µM | > 10 µM | > 10 µM | > 10 µM | 1 to 10 µM | > 10 µM | 1 to 10 µM | > 10 µM | 0.1 to 1 µM | 1 to 10 µM | > 10 µM
4 | c1n[nH]cc1-c1ccc(-c2ccc(NC3CCNCC3)nn2)c2[nH]ncc12 [Compound 263] | > 10 µM | > 10 µM | > 10 µM | > 10 µM | > 10 µM | > 10 µM | > 10 µM | > 10 µM | > 10 µM | > 10 µM | > 10 µM
5 | CN(c1ccc(-c2ccc(-n3cccn3)c3cn[nH]c23)nn1)C1CCNCC1 [Compound 264] | > 10 µM | > 10 µM | > 10 µM | > 10 µM | > 10 µM | > 10 µM | 1 to 10 µM | 1 to 10 µM | 1 to 10 µM | 1 to 10 µM | > 10 µM
6 | c1nc2c(-c3cn[nH]c3)ccc(-c3ccc(N4CCC5(CCN5)C4)nn3)c2s1 (stereo not shown) [Compound 265] | > 10 µM | > 10 µM | > 10 µM | 1 to 10 µM | > 10 µM | 1 to 10 µM | > 10 µM | > 10 µM | 0.1 to 1 µM | > 10 µM | > 10 µM
7 | c1nc2c(-c3cn[nH]c3)ccc(-c3ccc(N4CCC45CCNCC5)nn3)c2s1 [Compound 266] | 1 to 10 µM | > 10 µM | 1 to 10 µM | 1 to 10 µM | > 10 µM | 1 to 10 µM | 1 to 10 µM | > 10 µM | > 10 µM | 1 to 10 µM | > 10 µM
8 | [2H]C([2H])([2H])N(c1ccc(-c2ccc(-c3cn[nH]c3)c3cn[nH]c23)nn1)C1CCNCC1 [Compound 267] | > 10 µM | > 10 µM | > 10 µM | > 10 µM | > 10 µM | > 10 µM | 1 to 10 µM | 1 to 10 µM | 1 to 10 µM | 1 to 10 µM | > 10 µM
9 | CN(c1ccc(-c2ccc(-c3cn[nH]c3)c3cn[nH]c23)nn1)C1CCNCC1 [Compound 273] | > 10 µM | > 10 µM | > 10 µM | > 10 µM | > 10 µM | > 10 µM | > 10 µM | 1 to 10 µM | 1 to 10 µM | 1 to 10 µM | > 10 µM
10 | CCN(c1ccc(-c2ccc(-c3cn[nH]c3)c3cn[nH]c23)nn1)C1CCNCC1 [Compound 274] | > 10 µM | > 10 µM | > 10 µM | > 10 µM | > 10 µM | > 10 µM | 1 to 10 µM | 1 to 10 µM | 1 to 10 µM | 1 to 10 µM | > 10 µM
11 | CC1(C)CC(Nc2ccc(-c3ccc(-c4cn[nH]c4)c4cn[nH]c34)nn2)CC(C)(C)N1 [Compound 275] | 0.1 to 1 µM | 1 to 10 µM | 0.1 to 1 µM | 0.1 to 1 µM | 1 to 10 µM | 0.1 to 1 µM | 0.1 to 1 µM | < 0.1 µM | 0.1 to 1 µM | 0.1 to 1 µM | 1 to 10 µM
12 | c1nc2c(-c3cn[nH]c3)ccc(-c3ccc(N4CCC45CCCNC5)nn3)c2s1 (stereo not shown) [Compound 276] | 1 to 10 µM | 1 to 10 µM | 1 to 10 µM | 1 to 10 µM | 1 to 10 µM | 1 to 10 µM | 1 to 10 µM | 1 to 10 µM | 1 to 10 µM | 1 to 10 µM | 1 to 10 µM
13 | c1nc2c(-c3cn[nH]c3)ccc(-c3ccc(N4CCC45CCNC5)nn3)c2s1 (stereo not shown) [Compound 277] | > 10 µM | > 10 µM | > 10 µM | > 10 µM | > 10 µM | > 10 µM | > 10 µM | 1 to 10 µM | > 10 µM | 1 to 10 µM | > 10 µM
14 | c1cnn(-c2ccc(-c3ccc(N[C@@H]4C[C@H]5CC[C@@H](C4)N5)nn3)c3[nH]ncc23)c1 [Compound 278] |  | 0.1 to 1 µM | < 0.1 µM | 0.1 to 1 µM | 0.1 to 1 µM | 0.1 to 1 µM | < 0.1 µM | < 0.1 µM | < 0.1 µM | 0.1 to 1 µM | 0.1 to 1 µM
15 | CN(c1ccc(-c2ccc(-c3ccn(C)c(=O)c3)c3ncsc23)nn1)C1CC(C)(C)NC(C)(C)C1 [Compound 279] | 1 to 10 µM | 1 to 10 µM | 1 to 10 µM | 1 to 10 µM | > 10 µM | 1 to 10 µM | 1 to 10 µM | 1 to 10 µM | 0.1 to 1 µM | 1 to 10 µM | > 10 µM
16 | COc1cc(-c2ccc(-c3ccc(N(C)C4CC(C)(C)NC(C)(C)C4)nn3)c3scnc23)ccn1 [Compound 280] | 0.1 to 1 µM | 0.1 to 1 µM | 0.1 to 1 µM | 1 to 10 µM | 1 to 10 µM | 1 to 10 µM | < 0.1 µM | 0.1 to 1 µM | 0.1 to 1 µM | 0.1 to 1 µM | 1 to 10 µM
